Values quoted from earlier work in patent US7276500B2, “Substituted amides, their preparation and use” (Abbott GmbH & Co. KG, priority 1998, dated 2007).

How the values were obtained:
calpain = conditions: literature statement
cell membranes = conditions: literature statement
[1] = system: calpain (cleavage of pp60src in platelets); conditions: Oda et al., J. Biol. Chem. 1993

For `CC(=O)N[C@@H](CC(C)C)C(=O)N[C@@H](CC(C)C)C(=O)N[C@H](C=O)CCCNC(=N)N` [leupeptin], the calpain inhibition (calpain) is given as “good calpain inhibitors”, the “crossing of cell membranes” value (cell membranes) is given as “cross cell membranes only poorly” and the effect on cells (cell membranes) is given as “only a poor effect on cells”.

For `CC(C)C[C@H](NC(=O)[C@H]1O[C@@H]1C(=O)O)C(=O)NCCCCN=C(N)N` [E 64], the calpain inhibition (calpain) is given as “good calpain inhibitors”, the “crossing of cell membranes” value (cell membranes) is given as “cross cell membranes only poorly” and the effect on cells (cell membranes) is given as “only a poor effect on cells”.

In the case of `CCCC[C@@H](C=O)NC(=O)[C@H](CC(C)C)NC(=O)OCc1ccccc1` [calpeptin], the “cleavage of pp60src after activation of platelets” value [1] is given as “can be prevented”.

For Ph—CONH—CH(CH2Ph)—CO—COCOOCH3, the calpain inhibition (calpain) is given as “only a weak calpain inhibitor”.
